Source: a melting point compilation (Tetko et al.; mined from patent text by program, amines drawn as free bases though some values may be those of a salt)

| Structure (SMILES) | melting point [°C] |
| --- | --- |
| Cc1cccc(C2(c3cccc(C)c3)CCC(=O)[C@H]3CN(C(=O)Cc4ccccc4)C[C@H]32)c1 (racemic) | 207 |
| Nc1ccc2ncnc(Nc3ccc(OCc4ccccc4)cc3)c2c1 | 173 to 175 |
| CCCCC[C@@H](CNC(=O)Nc1c(N2CCOCC2)ncnc1N1CCOCC1)c1cccc2c1OCO2 | 128 to 132 |
| N#CCc1ccc(N)c2[nH]ncc12 | 164 to 165 |
| CC(C)(C)OC(=O)NCc1ccc(C2(C)OCCO2)cc1 | 105 to 107 |
| CC/C=C\CCC(C#N)(C#N)Cc1ccc(Cl)cc1 | 44.8 |
| CCn1c(=O)c(C(=O)NN)c(O)c2ccc(C)nc21 | 211 to 213 |
| CCCc1c2c(c([N+](=O)[O-])c3c(=O)cc(C(=O)O)oc13)CCCC2 | 265 to 267 |
| O=c1cc(OCc2ccccc2)cc(CC(O)c2ccc(OCc3ccccc3)c(OCc3ccccc3)c2)o1 (stereo not drawn) | 109 to 110 |
| COC(=O)c1ccc(C(=O)N(C)C)cc1 | 107 |
| COc1ccc2c(c1)CC(=O)NC2c1ccc(Cl)cc1 (stereo not drawn) | 200 to 201 |
| Cc1cc(NC2=NN(c3ccccc3)CC2)cc(C)c1O | 154 to 158 |
| COc1cc(OC)cc(N2CCN(C(=O)N(C)c3nc(C)c(C)nc3OC)CC2)c1 | 80 to 82 |
| CC(C)SN1N=C(c2ccccc2)C(SC(C)C)(SC(C)C)C1=O | 66 to 67 |
| O=[N+]([O-])c1ccc(C#CCCN2CC=C(c3ccccc3)CC2)nc1 | 133 to 134 |
| CS(=O)(=O)c1ccc(C2=C(c3ccccc3)C(=O)N(c3ccc(F)cc3)C2=O)c(F)c1 | 198 to 200 |
| COc1cccc2c(C(F)(F)F)cc(N3CCNCC3)nc12 | 130 |
| Oc1ccc(-c2ccc(O)cc2I)c(I)c1 | 171 to 172 |
| CCOC(=O)C(C(=O)CCCC(C)C)C1c2ccccc2C(=O)N1c1ccc2ccc(Cl)nc2n1 (stereo not drawn) | 135 |
| Cc1ccc(-c2cccc3ccccc23)n1CC[C@H]1C[C@H](O)CC(=O)O1 (relative stereo) | 137 to 138 |

Further lines, results first:

| melting point [°C] | Structure (SMILES) |
| --- | --- |
| 107 to 112 | CN1CCN(c2cccc3ccc(-n4cnc5ncccc54)cc23)CC1 |
| 94 to 96 | CC(C)n1c(S(=O)(=O)c2ccc(OCc3ccccc3)cc2)nc2ccccc21 |
| 219 to 221 | COc1cc(OC)c2c(=O)[nH]c(-c3cc(C)c(OCCN4C(=O)CN(C(C)C)C4=O)c(C)c3)nc2c1 |
| 86 to 86.5 | O=[N+]([O-])c1cccc(-c2coc3ccccc23)c1 |
| 158 to 159 | CSc1ccc(C(=O)Nc2cccnc2C(=O)Nc2ccc(Cl)cn2)c(OCCN)c1 |
| 77 to 78 | O=C(NC1CCCCC1)OC1CCCCC1 |
| 256 to 258 | CCc1cccc(C)c1CNc1cc(C(=O)NCCO)nc2c1nc(C)n2C |
| 240 to 241 | O=C(O)c1cc(C(=O)O)c2c(c1)C(C(=O)O)CCN2 (stereo not drawn) |
| 190 to 192 | Nc1ccc(S(=O)(=O)c2cc(Cl)nc(Cl)c2)cc1 |
| 118 to 121 | CS(=O)(=O)c1ccc(-c2cnn(CC3CC3)c(=O)c2-c2ccc(F)cc2)cc1 |
| 211 to 213 | Cn1c(=O)[nH]c2nc(C(F)(F)F)n(Cc3ccccc3)c2c1=O |
| 179 to 181 | CCOCc1nc2c(N)nc(C)c(C)c2n1CCNC(=O)N1CCOCC1 |
| 223 to 225 | Cc1nc(-n2cc(C(=O)Nc3ccccc3)ccc2=O)sc1C(=O)NCc1ccccc1 |
| 114 to 116 | N#Cc1ncncc1-c1ccc(CBr)cc1 |
| 109 to 111 | CC1CC2C3CCC4CC(O)CCC4(C)C3C(O)CC2(C)C1C1(C)OCCO1 (stereo not drawn) |
| 43 to 52 | CC(C)(C)OC(=O)[C@@H](N)Cc1ccc(O)c(C(C)(C)C)c1 |
| 150 to 152 | CC(O)=C(C(=O)OC(c1ccccc1)c1ccccc1)N1C(=O)C(NC(=O)COc2ccccc2)C1SS(=O)(=O)c1ccc(C)cc1 (stereo not drawn) |
| 118 | Clc1ccc(C2(Cn3ccnc3)OCC(CCc3ccccc3)O2)c(Cl)c1 (stereo not drawn) |
